According to patent publication US20060084684A1, “Topically applicable pharmaceutical preparation” (Altana Pharma AG, priority 2002, published 2006):
In brackets after ≈: the same amount, converted by molar mass.

What was measured:
Solubility in water = assay type: physicochemical; settings: at 21° C.
Source text: For treating disorders of the skin it Is desirable to provide the active pharmaceutical ingredient in a pharmaceutical preparation suitable for topical application.

[1] = Kinetic parameters after oral administration (comparison); assay type: in vivo, rat
Protocol: Comparison with kinetic parameters after oral administration of 1 mg/kg: […]

For `O=C(Nc1c(Cl)cncc1Cl)c1ccc(OC(F)F)c(OCC2CC2)c1` [roflumilast, N-(3,5-dichloropyrid-4-yl)-3-cyclopropylmethoxy-4-difluoromethoxybenzamide], the solubility (Solubility in water) was 0.53 µg/mL (≈ 1.31 µM), the “excretion with the urine” value ([1]; oral administration) was 18.4 % of the dose and the “AUC(0-24 h)” value ([1]; oral administration of 1 mg/kg) was 3.10 mg equiv./l×h. For the same molecule, the Cmax ([1]; oral administration of 1 mg/kg) was 0.225 mg equiv./l.
